Experimental data from patent US9180115B2, “Cyclohexylamines” (Asana Biosciences, LLC, priority 2011, dated 2015).

Tested on: sodium channel response in hTRPV1-N1E115 cells
Experiment: FLIPR membrane potential assay of sodium channel response in hTRPV1-N1E115 cells with or without heat (47° C.) activation
Assay type: cell-based
Settings: for hTRPV1-N1E Nav 0.1 mM (% inhibition) 25° C. / hTRPV1-N1E Nav 1 mM (% inhibition) 25° C.: 25° C. (no heat activation); for hTRPV1-N1E Nav 0.1 mM (% inhibition) 47° C. / hTRPV1-N1E Nav 1 mM (% inhibition) 47° C.: 47° C. (heat activated); for IC50: 47° C., read-out: hTRPV1-N1E IC50 (μM) 47° C.
From the text: In one embodiment, a modified FLIPR® (Fluorometric Imaging Plate Reader) based assay system was developed which is capable of discriminating between non-specific versus hTRPV1-mediated entry of test compounds. Advantageously, the assay system utilizes heat activated opening of hTRPV1 channels followed by an assessment of internal sodium channel block. The assay allows a permanently charged compound to selectively enter through opened hTRPV1 channels and that compound's potency in inhibiting sodium channels from the cytoplasm side of the same cell can be assessed and quantified.
The test compounds are diluted in the Assay Buffer and added to each well of a specific 384-well ‘compound plate’, which serves as a source plate for compound addition using the FLIPR® platform. The concentration of compounds in the compound-plate was adjusted to achieve the desired final concentration when added to the cells in the ‘cell-plate’. After completion of the dye incubation period, the dye loaded cell-plates and the compound source plates are inserted into the FLIPR® Tetra device with a 384 FLIPR® tip box (Molecular Devices, Inc.) according to manufacturer's instructions. The compounds are robotically added to the dye loaded cell-plates using software integral to the FLIPR® Tetra instrument.
Immediately following compound addition, hTRPV1 is activated, in one of the duplicate cell plates, by heating. Specifically, entire multi-well plate containing the compound-cells mixture is incubated at 47° C. for 10 minutes, after which they are returned to room temperature (about 25° C.) for a further 30 minutes. Heat activation of hTRPV1 was omitted from the replicate cell plate which was simply maintained at room temperature for the entire 40 minutes.
A membrane potential response is elicited in the dye- and compound-loaded cells by the addition of veratridine which is a known sodium channel ‘agonist’. As illustrated in an example herein, an agonist plate containing veratridine (Sigma) is prepared in advance and is inserted into suitable devices such as, e.g., the FLIPR® TETRA device for a “2nd addition” as instructed by the manufacturer. The concentration of veratridine in the ‘agonist plate’ was adjusted to achieve a final concentration of 100 μM when added to the cells in the cell-plate. Final concentrations of veratridine greater or lesser than 100 μM may also be used but the signal measured by the FLIPR® TETRA device or another suitable device may vary accordingly.
The exposure of the cells in the cell-plate to veratridine induces sodium channels in the cells to open and the resulting ion flux produces a membrane potential depolarization that is detected as a fluorescence signal by the FLIPR® Tetra Device. The activity of test compounds is determined by their ability to attenuate the veratridine-induced fluorescence signal, the most promising compounds are those that show an enhanced activity in the heat-activated cell plate over the non-heat-activated cell plate. This differential activity reflects enhanced compound uptake via the heat activated and open hTRPV1 channels and rests on the fact that sodium channel block requires test compounds to act from the cytoplasmic side of the cell membrane.
In vitro assays were developed for assessing the inhibition of sodium channel response with compounds following stimulation by heat (47° C.) in cells expressing hTRPV1.
(v) Membrane potential Assay to Assess Sodium Channel Function in hTRPV1-Expressing Cells • Cells were plated at 5000 per 50 μL [DMEM+10% FBS+300 μg/mL H\hygromycin] per well, in a 384 clear bottom poly-D-lysine coated plate and incubated at 37° C. and 5% CO2 for 48 hours. On the day of the assay, media were discarded gently and 30 μL of the dye [FMP blue dye was prepared in assay buffer] per well was added and dye-loading was allowed to proceed for 20 min at room temperature. […]

IC50	Structure (SMILES)	hTRPV1-N1E Nav 0.1 mM (% inhibition) 25° C.	hTRPV1-N1E Nav 0.1 mM (% inhibition) 47° C.	hTRPV1-N1E Nav 1 mM (% inhibition) 25° C.	hTRPV1-N1E Nav 1 mM (% inhibition) 47° C.
100 to 1000 µM	CC(C[N+](C)(C)C1CCCCC1)OC(=O)c1ccc(F)cc1C(F)(F)F.[I-] (stereo not drawn) [Example 15, N-[2-((4-Fluoro-2-(trifluoromethyl)benzoyl)oxy)propyl]-N,N-dimethyl-cyclohexanaminium iodide]	6 (N = 4) %	45 (N = 4) %	59 (N = 4) %	92 (N = 4) %
100 to 1000 µM	CC(C[N+](C)(C)C1CCCCC1)OC(=O)c1cccc(C(F)(F)F)c1.[I-] (stereo not drawn) [Example 16, N,N-Dimethyl-N-[2-((3-(trifluoromethyl)benzoyl)oxy)propyl] cyclohexanaminium iodide]	31 (N = 4) %	60 (N = 4) %	50 (N = 4) %	83 (N = 4) %
100 to 1000 µM	CC(C[N+](C)(C)C1CCCCC1)OC(=O)c1ccccc1C(F)(F)F.[I-] (stereo not drawn) [Example 17, N-[2-((2-(Trifluoromethyl)benzoyl)oxy)propyl]-N,N-dimethylcyclo-hexanaminium iodide]	4 (N = 4) %	54 (N = 4) %	72 (N = 4) %	96 (N = 4) %
–	CC(C[N+](C)(C)C1CCCCC1)OC(=O)c1ccccc1[N+](=O)[O-].[I-] (stereo not drawn) [Example 18, N,N-Dimethyl-N-[2-((2-nitrobenzoyl)oxy)propyl] cyclohexanaminium iodide]	3 (N = 4) %	41 (N = 4) %	28 (N = 4) %	66 (N = 4) %
10 to 100 µM	CC(C[N+](C)(C)C1CCCCC1)OC(=O)c1cc(Cl)cc(Cl)c1.[I-] (stereo not drawn) [Example 19, N-[2-((3,5-Dichlorobenzoyl)oxy)propyl]-N,N-dimethyl-cyclohexanaminium iodide]	25 (N = 4) %	–	12 (N = 4) %	52 (N = 4) %
10 to 100 µM	CCc1ccc(C(=O)OC(C)C[N+](C)(C)C2CCCCC2)cc1.[I-] (stereo not drawn) [Example 20, N-[2-((4-Ethylbenzoyl)oxy)propyl]-N,N-dimethyl-cyclohexanaminium iodide]	14 (N = 4) %	77 (N = 4) %	46 (N = 4) %	95 (N = 4) %
100 to 1000 µM	CC(C[N+](C)(C)C1CCCCC1)OC(=O)c1ccc(C(F)(F)F)cc1.[I-] (stereo not drawn) [Example 21, N,N-Dimethyl-N-[2-((4-(trifluoromethyl)benzoyl)oxy)propyl] cyclohexanaminium iodide]	11 (N = 4) %	57 (N = 4) %	35 (N = 4) %	96 (N = 4) %
10 to 100 µM	Cc1cc(C)c(C(=O)O[C@@H](C)C[N+](C)(C)C2CCCCC2)c(C)c1.[I-] [Example 22, (S)-N,N-Dimethyl-N-[2-((2,4,6-trimethylbenzoyl)oxy)propyl] cyclohexanaminium iodide]	33 (N = 4) %	–	91 (N = 4) %	–
10 to 100 µM	Cc1cccc(C)c1C(=O)O[C@@H](C)C[N+](C)(C)C1CCCCC1.[I-] [Example 23, (S)-N-[2-((2,6-Dimethylbenzoyl)oxy)propyl]-N,N-dimethyl-cyclohexanaminium iodide]	38 (N = 4) %	–	76 (N = 4) %	–
10 to 100 µM	Cc1cccc(C)c1C(=O)O[C@H](C)C[N+](C)(C)C1CCCCC1.[I-] [Example 24, (R)-N-[2-((2,6-Dimethylbenzoyl)oxy)propyl]-N,N-dimethyl-cyclohexanaminium iodide]	22 (N = 4) %	–	81 (N = 4) %	–
